# From publication PMC10893631, “Receptor-based pharmacophore modeling, molecular docking, synthesis and biological evaluation of novel VEGFR-2, FGFR-1, and BRAF multi-kinase inhibitors” (BMC Chemistry, 2024)
# Experiments:
# Test in all cases: NCI SRB growth inhibition (single dose 10 µM / five-dose)
# Type in all cases: cell-based, human
# [1] = test system: MDA-MB-468; settings: Homo sapiens; for inhibition at 10 µM: MDA-MB-468 (Breast cancer), read-out: GI%
# Method in brief: (§1)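 Cells plated at 5000–40,000 cells/well by doubling time; time-zero plates TCA-fixed after 24 h. Compounds (DMSO stocks) added at five 10-fold or ½-log concentrations plus control. Adherent cells TCA-fixed, stained with 0.4% SRB in 1% acetic acid; percentage growth from Tz, C and Ti absorbances.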
# [2] = test system: MDA-MB-231/ATCC; settings: Homo sapiens; for inhibition at 10 µM: MDA-MB-231/ATCC (Breast cancer), read-out: GI%
# Method in brief: as §1
# [3] = test system: MCF7; settings: Homo sapiens; for inhibition at 10 µM: MCF7 (Breast cancer), read-out: GI%
# Method in brief: as §1
# [4] = test system: UO-31; settings: Homo sapiens; for inhibition at 10 µM: UO-31 (Renal cancer), read-out: GI%
# Method in brief: as §1
# [5] = test system: T-47D; settings: Homo sapiens, T47D
# Method in brief: as §1
# [6] = test system: HL-60(TB); settings: Homo sapiens; for inhibition at 10 µM: HL-60(TB) (Leukemia), read-out: GI%
# Method in brief: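 Growth inhibition is derived from seven absorbance readings per agent (Tz, C and five Ti). Where a parameter level is not reached or is exceeded, the value is given as greater or less than the highest or lowest concentration tested.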
# [7] = test system: MALME-3 M; settings: Homo sapiens; for inhibition at 10 µM: MALME-3 M (Melanoma), read-out: GI%
# Method in brief: as §1
# [8] = test system: MOLT-4; settings: Homo sapiens; for inhibition at 10 µM: MOLT-4 (Leukemia), read-out: GI%
# Method in brief: as §1
# [9] = test system: NCI-H226; settings: Homo sapiens; for inhibition at 10 µM: NCI-H226 (Non-small cell lung cancer), read-out: GI%
# Method in brief: as §1
# [10] = test system: 786–0; settings: Homo sapiens; for inhibition at 10 µM: 786–0 (Renal cancer), read-out: GI%
# Method in brief: as §1
# [11] = test system: SK-MEL-5; settings: Homo sapiens; for inhibition at 10 µM: SK-MEL-5 (Melanoma), read-out: GI%
# Method in brief: as §1
# [12] = test system: SF-539; settings: Homo sapiens; for inhibition at 10 µM: SF-539 (CNS cancer), read-out: GI%
# Method in brief: as §1
# [13] = test system: SNB-19; settings: Homo sapiens; for inhibition at 10 µM: SNB-19 (CNS cancer), read-out: GI%
# Method in brief: as §1
# [14] = test system: A498; settings: Homo sapiens; for inhibition at 10 µM: A498 (Renal cancer), read-out: GI%
# Method in brief: as §1
# [15] = test system: PC-3; settings: Homo sapiens; for inhibition at 10 µM: PC-3 (Prostate cancer), read-out: GI%
# Method in brief: as §1
# [16] = test system: RXF 393; settings: Homo sapiens; for inhibition at 10 µM: RXF 393 (Renal cancer), read-out: GI%
# Method in brief: as §1
# [17] = test system: SF-268; settings: Homo sapiens; for inhibition at 10 µM: SF-268 (CNS cancer), read-out: GI%
# Method in brief: as §1
# [18] = test system: KM12; settings: Homo sapiens; for inhibition at 10 µM: KM12 (Colon cancer), read-out: GI%
# Method in brief: as §1
# [19] = test system: HCT-15; settings: Homo sapiens; for inhibition at 10 µM: HCT-15 (Colon cancer), read-out: GI%
# Method in brief: as §1
# [20] = test system: HS 578 T; settings: Homo sapiens; for inhibition at 10 µM: HS 578 T (Breast cancer), read-out: GI%
# Method in brief: as §1
# [21] = test system: SK-MEL-28; settings: Homo sapiens; for inhibition at 10 µM: SK-MEL-28 (Melanoma), read-out: GI%
# Method in brief: as §1
# [22] = test system: U251; settings: Homo sapiens, U-251; for inhibition at 10 µM: U251 (CNS cancer), read-out: GI%
# Method in brief: as §1
# [23] = test system: UACC-62; settings: Homo sapiens; for inhibition at 10 µM: UACC-62 (Melanoma), read-out: GI%
# Method in brief: as §1
# [24] = test system: OVCAR-5; settings: Homo sapiens; for inhibition at 10 µM: OVCAR-5 (Ovarian cancer), read-out: GI%
# Method in brief: as §1
# [25] = test system: NCI-H23; settings: Homo sapiens; for inhibition at 10 µM: NCI-H23 (Non-small cell lung cancer), read-out: GI%
# Method in brief: as §1
# [26] = test system: SW-620; settings: Homo sapiens; for inhibition at 10 µM: SW-620 (Colon cancer), read-out: GI%
# Method in brief: as §1
smiles,measurement,setting,value
"COc1cccc(C=NNC(=O)c2ccc3[nH]c(-c4ccccc4)nc3c2)c1O [8d, N'-(2-hydroxy-3-methoxybenzylidene)-2-phenyl-1H-benzo[d]imidazole-5-carbohydrazide]",inhibition at 10 µM,[1],> 100%
same,GI50,"[1]; MDA-MB-468, Breast cancer, five-dose",0.89 µM
same,inhibition at 10 µM,[2],94.4%
same,GI50,"[2]; MDA-MB-231/ATCC, Breast cancer, five-dose",2.41 µM
same,inhibition at 10 µM,[3],98.1%
same,GI50,"[3]; MCF7, Breast cancer, five-dose",1.06 µM
same,inhibition at 10 µM,[4],98.5%
same,GI50,"[4]; UO-31, Renal cancer, five-dose",2.34 µM
same,GI50,"[5]; T-47D, Breast cancer, five-dose",1.93 µM
same,inhibition at 10 µM,[6],90%
same,GI50,"[6]; HL-60(TB), Leukemia, five-dose",2.42 µM
same,inhibition at 10 µM,[7],> 100%
same,GI50,"[7]; MALME-3 M, Melanoma, five-dose",1.37 µM
same,inhibition at 10 µM,[8],65.8%
same,GI50,"[8]; MOLT-4, Leukemia, five-dose",2.06 µM
same,inhibition at 10 µM,[9],> 100%
same,GI50,"[9]; NCI-H226, Non-small cell lung cancer, five-dose",0.53 µM
same,inhibition at 10 µM,[10],86%
same,GI50,"[10]; 786–0, Renal cancer, five-dose",2.47 µM
same,inhibition at 10 µM,[11],> 100%
same,GI50,"[11]; SK-MEL-5, Melanoma, five-dose",1.4 µM
same,inhibition at 10 µM,[12],> 100%
same,GI50,"[12]; SF-539, CNS cancer, five-dose",1.31 µM
same,inhibition at 10 µM,[13],90.4%
same,GI50,"[13]; SNB-19, CNS cancer, five-dose",2.41 µM
same,inhibition at 10 µM,[14],< 5%
same,GI50,"[14]; A498, Renal cancer, five-dose",36.6 µM
same,inhibition at 10 µM,[15],82.2%
same,GI50,"[15]; PC-3, Prostate cancer, five-dose",2.71 µM
same,inhibition at 10 µM,[16],86%
same,GI50,"[16]; RXF 393, Renal cancer, five-dose",3.21 µM
same,inhibition at 10 µM,[17],99%
same,GI50,"[17]; SF-268, CNS cancer, five-dose",1.76 µM
same,inhibition at 10 µM,[18],> 100%
same,GI50,"[18]; KM12, Colon cancer, five-dose",2.58 µM
same,inhibition at 10 µM,[19],71.6%
same,GI50,"[19]; HCT-15, Colon cancer, five-dose",2.07 µM
same,inhibition at 10 µM,[20],92.9%
same,GI50,"[20]; HS 578 T, Breast cancer, five-dose",0.62 µM
same,inhibition at 10 µM,[21],96.2%
same,GI50,"[21]; SK-MEL-28, Melanoma, five-dose",1.78 µM
same,inhibition at 10 µM,[22],99.9%
same,GI50,"[22]; U251, CNS cancer, five-dose",0.76 µM
same,inhibition at 10 µM,[23],99.5%
same,GI50,"[23]; UACC-62, Melanoma, five-dose",1.22 µM
same,inhibition at 10 µM,[24],63.2%
same,GI50,"[24]; OVCAR-5, Ovarian cancer, five-dose",2.77 µM
same,inhibition at 10 µM,[25],> 100%
same,GI50,"[25]; NCI-H23, Non-small cell lung cancer, five-dose",1.87 µM
same,inhibition at 10 µM,[26],70.8%
same,GI50,"[26]; SW-620, Colon cancer, five-dose",3.77 µM
"COc1ccc(C=NNC(=O)c2ccc3[nH]c(-c4ccc(Cl)cc4)nc3c2)cc1O [8s, 2-(4-Chlorophenyl)-N'-(3-hydroxy-4-methoxybenzylidene)-1H-benzo[d]imidazole-5-carbohydrazide]",inhibition at 10 µM,[1],88.7%
same,inhibition at 10 µM,[2],75.1%
same,inhibition at 10 µM,[3],84.9%
same,inhibition at 10 µM,[4],8.7%
same,inhibition at 10 µM,[6],45.3%
same,inhibition at 10 µM,[7],> 100%
same,inhibition at 10 µM,[8],83.7%
same,inhibition at 10 µM,[9],37.6%
same,inhibition at 10 µM,[10],52%
same,inhibition at 10 µM,[11],53.3%
same,inhibition at 10 µM,[12],47.2%
same,inhibition at 10 µM,[13],39.7%
same,inhibition at 10 µM,[14],< 5%
same,inhibition at 10 µM,[15],56.5%
same,inhibition at 10 µM,[16],69.1%
same,inhibition at 10 µM,[17],72.7%
same,inhibition at 10 µM,[18],68.4%
same,inhibition at 10 µM,[19],23.3%
same,inhibition at 10 µM,[20],86.9%
same,inhibition at 10 µM,[21],70.8%
same,inhibition at 10 µM,[22],75.2%
same,inhibition at 10 µM,[23],37.5%
same,inhibition at 10 µM,[24],< 5%
same,inhibition at 10 µM,[25],29.2%
same,inhibition at 10 µM,[26],69.6%
"COc1cc(C=NNC(=O)c2ccc3[nH]c(-c4ccccc4)nc3c2)cc(OC)c1OC [8g, 2-Phenyl-N'-(3,4,5-trimethoxybenzylidene)-1H-benzo[d]imidazole-5-carbohydrazide]",inhibition at 10 µM,[1],39.2%
same,inhibition at 10 µM,[2],30.5%
same,inhibition at 10 µM,[3],86%
same,inhibition at 10 µM,[4],45.5%
same,inhibition at 10 µM,[6],17.1%
same,inhibition at 10 µM,[7],73.6%
same,inhibition at 10 µM,[8],21.2%
same,inhibition at 10 µM,[9],50.4%
same,inhibition at 10 µM,[10],27.8%
same,inhibition at 10 µM,[11],89.3%
same,inhibition at 10 µM,[12],49.8%
same,inhibition at 10 µM,[13],25.2%
same,inhibition at 10 µM,[14],< 5%
same,inhibition at 10 µM,[15],37.9%
same,inhibition at 10 µM,[16],30.8%
same,inhibition at 10 µM,[17],32%
same,inhibition at 10 µM,[18],36.4%
same,inhibition at 10 µM,[19],38.4%
same,inhibition at 10 µM,[20],51%
same,inhibition at 10 µM,[21],40.4%
same,inhibition at 10 µM,[22],42.3%
same,inhibition at 10 µM,[23],70.4%
same,inhibition at 10 µM,[24],< 5%
same,inhibition at 10 µM,[25],49.4%
same,inhibition at 10 µM,[26],37.9%
"COc1ccc(OC)c(C=NNC(=O)c2ccc3[nH]c(-c4ccccc4)nc3c2)c1 [8f, N'-(2,5-Dimethoxybenzylidene)-2-phenyl-1H-benzo[d]imidazole-5-carbohydrazide]",inhibition at 10 µM,[1],24.7%
same,inhibition at 10 µM,[2],38%
same,inhibition at 10 µM,[3],54.1%
same,inhibition at 10 µM,[4],54%
same,inhibition at 10 µM,[6],36.3%
same,inhibition at 10 µM,[7],40.5%
same,inhibition at 10 µM,[8],49.5%
same,inhibition at 10 µM,[9],49.5%
same,inhibition at 10 µM,[10],18.6%
same,inhibition at 10 µM,[11],67.8%
same,inhibition at 10 µM,[12],36.9%
same,inhibition at 10 µM,[13],21.4%
same,inhibition at 10 µM,[14],< 5%
same,inhibition at 10 µM,[15],55.5%
same,inhibition at 10 µM,[16],50%
same,inhibition at 10 µM,[17],36.6%
same,inhibition at 10 µM,[18],30.5%
same,inhibition at 10 µM,[19],65.2%
same,inhibition at 10 µM,[20],49.9%
same,inhibition at 10 µM,[21],29.1%
same,inhibition at 10 µM,[22],20.7%
same,inhibition at 10 µM,[23],35.5%
same,inhibition at 10 µM,[24],< 5%
same,inhibition at 10 µM,[25],46.7%
same,inhibition at 10 µM,[26],30.3%
"O=C(NN=Cc1cccc(O)c1)c1ccc2[nH]c(-c3ccc(Cl)cc3)nc2c1 [8p, 2-(4-Chlorophenyl)-N'-(3-hydroxybenzylidene)-1H-benzo[d]imidazole-5-carbohydrazide]",inhibition at 10 µM,[1],65.8%
same,inhibition at 10 µM,[2],45.2%
same,inhibition at 10 µM,[3],72.3%
same,inhibition at 10 µM,[4],14.9%
same,inhibition at 10 µM,"[5]; T-47D (Breast cancer), 10 µM, read-out: GI%",79.8%
same,inhibition at 10 µM,[6],< 5%
same,inhibition at 10 µM,[7],58.9%
same,inhibition at 10 µM,[8],68.6%
same,inhibition at 10 µM,[9],30.1%
same,inhibition at 10 µM,[10],22.2%
same,inhibition at 10 µM,[11],69.5%
same,inhibition at 10 µM,[12],32.4%
same,inhibition at 10 µM,[14],10.2%
same,inhibition at 10 µM,[15],48.8%
same,inhibition at 10 µM,[16],31.6%
same,inhibition at 10 µM,[17],24.2%
same,inhibition at 10 µM,[18],62.7%
same,inhibition at 10 µM,[19],< 5%
same,inhibition at 10 µM,[20],27.1%
same,inhibition at 10 µM,[21],16%
same,inhibition at 10 µM,[22],75.5%
same,inhibition at 10 µM,[23],19.6%
same,inhibition at 10 µM,[24],< 5%
same,inhibition at 10 µM,[25],56.6%
same,inhibition at 10 µM,[26],6.31%
